Reference: PMC9505425, “Targeting of the Mitochondrial TET1 Protein by Pyrrolo[3,2-b]pyrrole Chelators” (International Journal of Molecular Sciences, 2022)
“And” between values parts separate entries of the source, which are not always exact repeats. Equal values may be shown once.

How the values were obtained:
[1] = MTT cytotoxicity assay, HF-P4; assay type: cell-based, human; conditions: human, HF-P4 normal human dermal fibroblasts, repeats, read-out: Cell viability %
Description: (§1) The effects of the tested compounds 1–6 on HF-P4, U-118 MG, H1299, BT-20, and Caov-3 cell lines were evaluated by the MTT assay during 48 h treatment (Table 2 and Tables S2–S31). In all tested compounds, we recognized a difference in cytotoxicity between healthy cells (HF-P4) and cancer cell lines (BT-20, Caov-3, and H-1299). […] In the case of ovarian cancer, the authors discovered oncogenic and poor prognosis roles of TET1 in epithelial ovarian carcinoma (EOC). TET1 is believed to demethylate the epigenome and activate numerous oncogenic pathways in EOC. The aforementioned study presents a new mechanism where TET1 contributes to tumor development through collaboration with CK2α [21]. The overexpression of the TET1 protein was also found in triple negative breast cancer and was associated with an activation of PI3K/mTOR pathway and decreased overall survival.
(§2) A human dermal fibroblast cell line was used for intracellular localization and cytotoxicity assay (MTT). Human fibroblast cells HF-P4 (human fibroblasts—patient 4) are normal dermal fibroblasts, which were obtained from the residual skin of a healthy patient who underwent plastic surgery (with informed consent of the patient). HF-P4 cell lines were obtained from the Department of Plastic Surgery, Third Faculty of Medicine, Charles University and University Hospital Královské Vinohrady, Prague, Czech Republic, as described by Szabo et al., 2011, and Dvořánková et al., 2019 [88, 89], and have been processed in accordance with the relevant local ethics committee and the Declaration of Helsinki protection of patients’ rights and benefits with written and signed informed consent of each patient. Cells were cultivated under standard conditions in Dulbecco’s modified Eagle’s medium (ATCC, Manassas, VA, USA), supplemented with 10% FBS and streptomycin (100 μg/mL) at 37 °C at a 5% CO2 atmosphere.
(§3) For the cytotoxicity assay, we used the following cell lines: human glioblastoma cell line U118-MG, human mammary gland/breast cell line BT-20, human ovary adenocarcinoma cell line Caov-3, and non-small-cell lung carcinoma H-1299. As previously mentioned, these cell lines contain a high level of the TET1 protein, which corresponds to a lower overall survival. In addition to these cell cultures, we used the human dermal fibroblast cell line HF-P4 as a healthy control. Determination of cytotoxicity was performed using the MTT [3-(4,5-dimethylthiazol-2-yl)-2,5-diphenyltetrazolium bromide] colorimetric assay. Viable cells from each cell line were cultured in 96-well plates (VWR, Stříbrná Skalice, Czech Republic) at a density of 1.0 × 10^5 cells per well and allowed to grow for 24 h in 200 μL of recommended medium. After a 1-day incubation, the medium was replaced with solutions of compounds 1–6 at concentration ranges of 0.1–20 μM. Each concentration was measured four times within one test, and the entire test was repeated three times. Tested compounds 1–6 were dissolved in DMSO and then diluted with corresponding medium to a final volume of 200 μL (maximum 1% DMSO). After 48 h exposure, cells were treated with 175 μL of MTT solution (P-LAB, Prague, Czech Republic) for 2 h. In the next step, MTT solution was removed, and 125 μL of DMSO (Penta, Prague, Czech Republic) was added to solubilize dark crystals of formazan formed in intact cells, and absorbance was measured at 570 nm by the enzyme-linked immunoabsorbent assay reader Infinite® 200 PRO (Tecan, Männedorf, Switzerland). The final DMSO concentration was smaller than 1% (v/v). The absorbance of untreated cells was considered 100%, and IC50 values were calculated by the GraphPad Prism 8 software. As a parameter for cytotoxicity, we used a concentration that inhibits 50% of cell growth (IC50).

HF-P4 cells = experiment: MTT cytotoxicity assay, HF-P4; assay type: cell-based, human; conditions: 48 h; for Cell viability %: repeats
Description: as §1, §2, §3

Caov-3 cells = experiment: MTT cytotoxicity assay, Caov-3; assay type: cell-based, human
Description: as §1
The human ovary adenocarcinoma cell line (Caov-3), purchased from ATCC (Caov-3 (ATCC® HTB-75™), Manassas, VA, USA), was used for the cytotoxicity assay (MTT). Caov-3 cells were cultivated under standard conditions in Dulbecco’s modified Eagle’s medium (ATCC, Manassas, VA, USA) supplemented with 10% FBS and streptomycin (100 μg/mL) at 37 °C at a 5% CO2 atmosphere.
as §3

BT-20 cells = experiment: MTT cytotoxicity assay, BT-20; assay type: cell-based, human
Description: as §1
The human mammary gland/breast cell line (BT-20), purchased from ATCC (BT-20 (ATCC® HTB-19™), Manassas, VA, USA), was used for the cytotoxicity assay (MTT), and BT-20 cells were cultivated under standard conditions in Eagle’s minimum essential medium (ATCC, Manassas, VA, USA) supplemented with 10% FBS and streptomycin (100 μg/mL) at 37 °C at a 5% CO2 atmosphere.
as §3

## Cc1ccc(-n2c(-c3ccc(C(=O)N/N=C/c4cc(F)ccc4O)cc3)cc3c2cc(-c2ccc(C(=O)N/N=C/c4cc(F)ccc4O)cc2)n3-c2ccc(C)cc2)cc1 [Compound 3]
[1]; HF-P4, 100 nM
  viability at 48 h, 0.1 µM: 95.8%
[1]; HF-P4, 500 nM
  viability at 48 h, 0.5 µM: 99.9%
[1]; HF-P4, 750 nM
  viability at 48 h, 0.75 µM: 107%
[1]; HF-P4, 1 uM
  viability at 48 h, 1 µM: 100%
[1]; HF-P4, 2.5 uM
  viability at 48 h, 2.5 µM: 87.1%
[1]; HF-P4, 5 uM
  viability at 48 h, 5 µM: 85.8%
[1]; HF-P4, 7.5 uM
  viability at 48 h, 7.5 µM: 78.7%
[1]; HF-P4, 10 uM
  viability at 48 h, 10 µM: 82.6%
[1]; HF-P4, 15 uM
  viability at 48 h, 15 µM: 65.6%
[1]; HF-P4, 20 uM
  viability at 48 h, 20 µM: 59%
HF-P4 cells; HF-P4, 100 nM, 0.1 µM
  Cell viability %: 96.12% and 98.08%
HF-P4 cells; HF-P4, 500 nM, 0.5 µM
  Cell viability %: 100.1756% and 103.312%
HF-P4 cells; HF-P4, 750 nM, 0.75 µM
  Cell viability %: 98.1566% and 91.216%
HF-P4 cells; HF-P4, 1 uM, 1 µM
  Cell viability %: 97.13% and 98.88%
HF-P4 cells; HF-P4, 2.5 uM, 2.5 µM
  Cell viability %: 92.78% and 93.78%
HF-P4 cells; HF-P4, 5 uM, 5 µM
  Cell viability %: 90.27% and 73.392%
HF-P4 cells; HF-P4, 7.5 uM, 7.5 µM
  Cell viability %: 83.18% and 77.088%
HF-P4 cells; HF-P4, 10 uM, 10 µM
  Cell viability %: 74.37% and 72.544%
HF-P4 cells; HF-P4, 15 uM, 15 µM
  Cell viability %: 66.4% and 65.2%
HF-P4 cells; HF-P4, 20 uM, 20 µM
  Cell viability %: 62.78% and 65.696%
HF-P4 cells; Homo sapiens, MTT
  IC50: > 20 µM
Caov-3 cells; Caov-3, 100 nM, 48 h, repeats, 0.1 µM
  Cell viability %: 80.39% and 71.14%
Caov-3 cells; Caov-3, 500 nM, 48 h, repeats, 0.5 µM
  Cell viability %: 93.5% and 75.39% and 98.76%
Caov-3 cells; Caov-3, 750 nM, 48 h, repeats, 0.75 µM
  Cell viability %: 86.6015% and 81.49% and 112.9009%
Caov-3 cells; Caov-3, 1 uM, 48 h, repeats, 1 µM
  Cell viability %: 86.92% and 97.81%
Caov-3 cells; Caov-3, 2.5 uM, 48 h, repeats, 2.5 µM
  Cell viability %: 89.39% and 98.69%
Caov-3 cells; Caov-3, 5 uM, 48 h, repeats, 5 µM
  Cell viability %: 67.61% and 86.52%
Caov-3 cells; Caov-3, 7.5 uM, 48 h, repeats, 7.5 µM
  Cell viability %: 83.04% and 61.94% and 104.0087%
Caov-3 cells; Caov-3, 10 uM, 48 h, repeats, 10 µM
  Cell viability %: 67.37% and 81.12%
Caov-3 cells; Caov-3, 15 uM, 48 h, repeats, 15 µM
  Cell viability %: 57.51% and 62.97%
Caov-3 cells; Caov-3, 20 uM, 48 h, repeats, 20 µM
  Cell viability %: 34.98% and 37.9%
Caov-3 cells; Homo sapiens, Caov-3, 48 h, Caov-3, 100 nM, repeats, read-out: Cell viability %
  viability at 0.1 µM: 84.4%
Caov-3 cells; Homo sapiens, Caov-3, 48 h, Caov-3, 1 uM, repeats, read-out: Cell viability %
  viability at 1 µM: 89.4%
Caov-3 cells; Homo sapiens, Caov-3, 48 h, Caov-3, 2.5 uM, repeats, read-out: Cell viability %
  viability at 2.5 µM: 85.3%
Caov-3 cells; Homo sapiens, Caov-3, 48 h, Caov-3, 5 uM, repeats, read-out: Cell viability %
  viability at 5 µM: 70.6%
Caov-3 cells; Homo sapiens, Caov-3, 48 h, Caov-3, 10 uM, repeats, read-out: Cell viability %
  viability at 10 µM: 65.4%
Caov-3 cells; Homo sapiens, Caov-3, 48 h, Caov-3, 15 uM, repeats, read-out: Cell viability %
  viability at 15 µM: 59%
Caov-3 cells; Homo sapiens, Caov-3, 48 h, Caov-3, 20 uM, repeats, read-out: Cell viability %
  viability at 20 µM: 35.5%
Caov-3 cells; Homo sapiens, Caov-3, MTT, 48 h
  IC50: 17.8 µM
BT-20 cells; BT-20, 100 nM, 48 h, repeats, 0.1 µM
  Cell viability %: 73.86% and 70.55%
BT-20 cells; BT-20, 500 nM, 48 h, repeats, 0.5 µM
  Cell viability %: 90.62% and 106.8284%
BT-20 cells; BT-20, 750 nM, 48 h, repeats, 0.75 µM
  Cell viability %: 90.49% and 101.3318%
BT-20 cells; BT-20, 1 uM, 48 h, repeats, 1 µM
  Cell viability %: 95.2857% and 94.7%
BT-20 cells; BT-20, 2.5 uM, 48 h, repeats, 2.5 µM
  Cell viability %: 99.34% and 98.89%
BT-20 cells; BT-20, 5 uM, 48 h, repeats, 5 µM
  Cell viability %: 91.79% and 101.4304%
BT-20 cells; BT-20, 7.5 uM, 48 h, repeats, 7.5 µM
  Cell viability %: 71.93% and 72.16%
BT-20 cells; BT-20, 10 uM, 48 h, repeats, 10 µM
  Cell viability %: 60.86% and 57.19%
BT-20 cells; BT-20, 15 uM, 48 h, repeats, 15 µM
  Cell viability %: 53.94% and 48.1349%
BT-20 cells; BT-20, 20 uM, 48 h, repeats, 20 µM
  Cell viability %: 33.39% and 29.51%
BT-20 cells; Homo sapiens, BT-20, 48 h, BT-20, 100 nM, repeats, read-out: Cell viability %
  viability at 0.1 µM: 83.4%
BT-20 cells; Homo sapiens, BT-20, 48 h, BT-20, 500 nM, repeats, read-out: Cell viability %
  viability at 0.5 µM: 95.3%
BT-20 cells; Homo sapiens, BT-20, 48 h, BT-20, 750 nM, repeats, read-out: Cell viability %
  viability at 0.75 µM: 99.7%
BT-20 cells; Homo sapiens, BT-20, 48 h, BT-20, 1 uM, repeats, read-out: Cell viability %
  viability at 1 µM: 104%
BT-20 cells; Homo sapiens, BT-20, 48 h, BT-20, 2.5 uM, repeats, read-out: Cell viability %
  viability at 2.5 µM: 99.4%
BT-20 cells; Homo sapiens, BT-20, 48 h, BT-20, 5 uM, repeats, read-out: Cell viability %
  viability at 5 µM: 85.1%
BT-20 cells; Homo sapiens, BT-20, 48 h, BT-20, 7.5 uM, repeats, read-out: Cell viability %
  viability at 7.5 µM: 73.1%
BT-20 cells; Homo sapiens, BT-20, 48 h, BT-20, 10 uM, repeats, read-out: Cell viability %
  viability at 10 µM: 62.9%
BT-20 cells; Homo sapiens, BT-20, 48 h, BT-20, 15 uM, repeats, read-out: Cell viability %
  viability at 15 µM: 48.9%
BT-20 cells; Homo sapiens, BT-20, 48 h, BT-20, 20 uM, repeats, read-out: Cell viability %
  viability at 20 µM: 41%
BT-20 cells; Homo sapiens, BT-20, MTT, 48 h
  IC50: 13.7 µM
other
  melting point: 337 to 338 °C
